According to patent US20250051300A1, “GRAM-NEGATIVE SPECIFIC ANTIBIOTICS SPARING EFFECT ON GUT MICROBIOME” (THE BOARD OF TRUSTEES OF THE UNIVERSITY OF ILLINOIS, priority 2021, published 2025):
Where two headings read alike, the source gives them in different places.

Key:
Klebsiella pneumoniae = test: MIC, micro-dilution broth method (CLSI); type: cell-based
E. coli AR0349 = test: Acute pneumonia bacterial burden model; type: in vivo, CD-1 mice; settings: 100 mg/kg IP twice a day for 3 days, lungs, 72 h post-infection

Compound `Fc1ccc(COc2cccc(-c3n[nH]cc3-c3ccncc3)c2)cc1` [Compound 2, 4-(3-(3-((4-fluorobenzyl)oxy)phenyl)-1H-pyrazol-4-yl)pyridine] has an MIC (Klebsiella pneumoniae; K. pneumoniae AR-0040) of over 32 µg/mL, an MIC (Klebsiella pneumoniae; K. pneumoniae ATCC BAA-1705) of over 32 µg/mL and an MIC (Klebsiella pneumoniae; Klebsiella pneumoniae, ATCC27736, K. pneumoniae ATCC 27736, read-out: MIC) of over 32 µg/mL. It also gave an MIC (Klebsiella pneumoniae; Klebsiella pneumoniae, ATCCBAA1705, K. pneumoniae ATCC BAA-1705, read-out: MIC) of over 32 µg/mL, an MIC (Klebsiella pneumoniae; Klebsiella pneumoniae, ATCCBAA2146, K. pneumoniae ATCC BAA-2146, read-out: MIC) of over 32 µg/mL and an MIC (Klebsiella pneumoniae; Klebsiella pneumoniae, ATCCBAA2342, K. pneumoniae ATCC BAA-2342, read-out: MIC) of over 32 µg/mL. For the same compound, the MIC (Klebsiella pneumoniae; Klebsiella pneumoniae, ATCCBAA2470, K. pneumoniae ATCC BAA-2470, read-out: MIC) was over 32 µg/mL, the MIC (Klebsiella pneumoniae; Klebsiella pneumoniae, ATCCBAA2472, K. pneumoniae ATCC BAA-2472, read-out: MIC) was over 32 µg/mL and the MIC (Klebsiella pneumoniae; Klebsiella pneumoniae, ATCCBAA2473, K. pneumoniae ATCC BAA-2473, read-out: MIC) was over 32 µg/mL. It also gave an MIC (Klebsiella pneumoniae; Klebsiella pneumoniae, K. pneumoniae AR0034, read-out: MIC) of over 32 µg/mL, an MIC (Klebsiella pneumoniae; Klebsiella pneumoniae, K. pneumoniae AR0039, read-out: MIC) of over 32 µg/mL and an MIC (Klebsiella pneumoniae; Klebsiella pneumoniae, K. pneumoniae AR0041, read-out: MIC) of over 32 µg/mL. The MIC (Klebsiella pneumoniae; Klebsiella pneumoniae, K. pneumoniae AR0042, read-out: MIC) was over 32 µg/mL, the MIC (Klebsiella pneumoniae; Klebsiella pneumoniae, K. pneumoniae AR0043, read-out: MIC) was over 32 µg/mL and the MIC (Klebsiella pneumoniae; Klebsiella pneumoniae, K. pneumoniae AR0044, read-out: MIC) was over 32 µg/mL. The MIC (Klebsiella pneumoniae; Klebsiella pneumoniae, K. pneumoniae AR0046, read-out: MIC) was over 32 µg/mL, the MIC (Klebsiella pneumoniae; Klebsiella pneumoniae, K. pneumoniae AR0047, read-out: MIC) was over 32 µg/mL and the MIC (Klebsiella pneumoniae; Klebsiella pneumoniae, K. pneumoniae AR0049, read-out: MIC) was over 32 µg/mL. It also gave an MIC (Klebsiella pneumoniae; Klebsiella pneumoniae, K. pneumoniae AR0066, read-out: MIC) of over 32 µg/mL, an MIC (Klebsiella pneumoniae; Klebsiella pneumoniae, K. pneumoniae AR0068, read-out: MIC) of over 32 µg/mL and an MIC (Klebsiella pneumoniae; Klebsiella pneumoniae, K. pneumoniae AR0075, read-out: MIC) of over 32 µg/mL. It also gave an MIC (Klebsiella pneumoniae; Klebsiella pneumoniae, K. pneumoniae AR0076, read-out: MIC) of over 32 µg/mL, an MIC (Klebsiella pneumoniae; Klebsiella pneumoniae, K. pneumoniae AR0079, read-out: MIC) of over 32 µg/mL and an MIC (Klebsiella pneumoniae; Klebsiella pneumoniae, K. pneumoniae AR0080, read-out: MIC) of over 32 µg/mL. It also gave an MIC (Klebsiella pneumoniae; Klebsiella pneumoniae, K. pneumoniae AR0087, read-out: MIC) of over 32 µg/mL, an MIC (Klebsiella pneumoniae; Klebsiella pneumoniae, K. pneumoniae AR0098, read-out: MIC) of over 32 µg/mL and an MIC (Klebsiella pneumoniae; Klebsiella pneumoniae, K. pneumoniae AR0106, read-out: MIC) of over 32 µg/mL. It also gave an MIC (Klebsiella pneumoniae; Klebsiella pneumoniae, K. pneumoniae AR0107, read-out: MIC) of over 32 µg/mL, an MIC (Klebsiella pneumoniae; Klebsiella pneumoniae, K. pneumoniae AR0109, read-out: MIC) of over 32 µg/mL and an MIC (Klebsiella pneumoniae; Klebsiella pneumoniae, K. pneumoniae AR0112, read-out: MIC) of over 32 µg/mL. It also gave an MIC (Klebsiella pneumoniae; Klebsiella pneumoniae, K. pneumoniae AR0113, read-out: MIC) of over 32 µg/mL, an MIC (Klebsiella pneumoniae; Klebsiella pneumoniae, K. pneumoniae AR0115, read-out: MIC) of over 32 µg/mL and an MIC (Klebsiella pneumoniae; Klebsiella pneumoniae, K. pneumoniae AR0117, read-out: MIC) of over 32 µg/mL. For the same compound, the MIC (Klebsiella pneumoniae; Klebsiella pneumoniae, K. pneumoniae AR0120, read-out: MIC) was over 32 µg/mL, the MIC (Klebsiella pneumoniae; Klebsiella pneumoniae, K. pneumoniae AR0125, read-out: MIC) was over 32 µg/mL and the MIC (Klebsiella pneumoniae; Klebsiella pneumoniae, K. pneumoniae AR0126, read-out: MIC) was over 32 µg/mL. It also gave an MIC (Klebsiella pneumoniae; Klebsiella pneumoniae, K. pneumoniae AR0129, read-out: MIC) of over 32 µg/mL, an MIC (Klebsiella pneumoniae; Klebsiella pneumoniae, K. pneumoniae AR0135, read-out: MIC) of over 32 µg/mL and an MIC (Klebsiella pneumoniae; Klebsiella pneumoniae, K. pneumoniae AR0138, read-out: MIC) of over 32 µg/mL. It also gave an MIC (Klebsiella pneumoniae; Klebsiella pneumoniae, K. pneumoniae AR0139, read-out: MIC) of over 32 µg/mL, an MIC (Klebsiella pneumoniae; Klebsiella pneumoniae, K. pneumoniae AR0140, read-out: MIC) of over 32 µg/mL and an MIC (Klebsiella pneumoniae; Klebsiella pneumoniae, K. pneumoniae AR0141, read-out: MIC) of over 32 µg/mL. It also gave an MIC (Klebsiella pneumoniae; Klebsiella pneumoniae, K. pneumoniae AR0142, read-out: MIC) of over 32 µg/mL, an MIC (Klebsiella pneumoniae; Klebsiella pneumoniae, K. pneumoniae AR0143, read-out: MIC) of over 32 µg/mL and an MIC (Klebsiella pneumoniae; Klebsiella pneumoniae, K. pneumoniae AR0145, read-out: MIC) of over 32 µg/mL. The MIC (Klebsiella pneumoniae; Klebsiella pneumoniae, K. pneumoniae AR0146, read-out: MIC) was over 32 µg/mL, the MIC (Klebsiella pneumoniae; Klebsiella pneumoniae, K. pneumoniae AR0148, read-out: MIC) was over 32 µg/mL and the MIC (Klebsiella pneumoniae; Klebsiella pneumoniae, K. pneumoniae AR0152, read-out: MIC) was over 32 µg/mL. The MIC (Klebsiella pneumoniae; Klebsiella pneumoniae, K. pneumoniae AR0153, read-out: MIC) was over 32 µg/mL, the MIC (Klebsiella pneumoniae; Klebsiella pneumoniae, K. pneumoniae AR0158, read-out: MIC) was over 32 µg/mL and the MIC (Klebsiella pneumoniae; Klebsiella pneumoniae, K. pneumoniae AR0160, read-out: MIC) was over 32 µg/mL. It also gave an MIC (Klebsiella pneumoniae; Klebsiella pneumoniae, K. pneumoniae AR0347, read-out: MIC) of over 32 µg/mL, an MIC (Klebsiella pneumoniae; Klebsiella pneumoniae, K. pneumoniae AR0542, read-out: MIC) of over 32 µg/mL and an MIC (Klebsiella pneumoniae; Klebsiella pneumoniae, K. pneumoniae AR0548, read-out: MIC) of over 32 µg/mL. It also gave an MIC (Klebsiella pneumoniae; Klebsiella pneumoniae, K. pneumoniae AR0550, read-out: MIC) of over 32 µg/mL, an MIC (Klebsiella pneumoniae; Klebsiella pneumoniae, K. pneumoniae AR0552, read-out: MIC) of over 32 µg/mL and an MIC (Klebsiella pneumoniae; Klebsiella pneumoniae, K. pneumoniae AR0553, read-out: MIC) of over 32 µg/mL. For the same compound, the MIC (Klebsiella pneumoniae; Klebsiella pneumoniae, K. pneumoniae AR0554, read-out: MIC) was over 32 µg/mL, the MIC (Klebsiella pneumoniae; Klebsiella pneumoniae, K. pneumoniae AR0555, read-out: MIC) was over 32 µg/mL and the MIC (Klebsiella pneumoniae; Klebsiella pneumoniae, K. pneumoniae AR-0040, read-out: MIC) was over 32 µg/mL. For the same compound, the “reduction in bacterial burden” value (E. coli AR0349) was “fared poorly”.
